Values quoted from earlier work, collected in patent US20160296513A1 (Teva Pharmaceutical Industries Ltd., priority 2013, published 2016).

Key:
[1] = system: genes related to antigen presentation and corresponding inflammatory pathways; conditions: mainly via the NFkB pathway
[2] = in vivo
[3] = system: first-line treatment-refractory RRMS; conditions: CARE-MS II
[4] = system: relapsing-remitting multiple sclerosis (RRMS); conditions: CARE-MS I, vs interferon beta-1a
[5] = system: multiple sclerosis patients; conditions: human, in vivo

oral bioavailability [2]	Compound	suppression of genes related to antigen presentation and corresponding inflammatory pathways [1]	neurodegeneration and non-relapse-dependent disability progression (MS; in MS)	Confirmed Disease Progression (CDP) (MS; unexplained by inflammatory markers)	accumulation of disability [3]	relapse rates [3]	relapse ([4]; 12 mg/day IV 5 days at Month 0, 3 days at Month 12)	disability endpoints [4]	depletion repletion pattern for T cells, B cells and monocytes [5]	effect on inflammatory axis [5]
high	CCN(C(=O)c1c(O)c2c(Cl)cccc2n(C)c1=O)c1ccccc1 [Laquinimod, 5-chloro-N-ethyl-4-hydroxy-1-methyl-2-oxo-N-phenyl-1,2-dihydroquinoline-3-carboxamide]	induced suppression	showed potential for slowing neurodegeneration and reducing non-relapse-dependent disability progression	sustain Confirmed Disease Progression (CDP)	–	–	–	–	–	–
–	Alemtuzumab: recombinant DNA-derived humanized monoclonal IgGlx antibody raised against CD52	–	–	–	sustain accumulation of disability	reduce relapse rates	reduction of relapse	did not show benefit	well characterized depletion repletion pattern	large and sustained
